Data reported in US20050282159A1, “Rpob gene of streptomyces, primer specific to streptomyces, and identification method of streptomyces having rifampin resistance or sensitivity by using the same” (priority 2001, published 2005).

Assays:
S. actuosus KCTC 9112 = experiment: rifampin-sensitive test on Bennet solid media; format: cell-based; design: key: “(+)” indicates a genotype with rifampin-resistance; “(−)” indicates a genotype with rifampin-susceptibility; conditions: TCG (TCC) genotype, 25 ug/ml rifampin, 72 hr
Procedure: The 47 strains were respectively cultured at 28° C. for 72 hr in Bennet liquid media. The culture solution was then inoculated on Bennet solid media (yeast extract 1 g/L, Beef extract 1 g/L, Tryptone 2 g/L, Glycerol 10 g/L, Agar 15 g/L) containing 25 ug/ml rifampin, and after incubation for 72 hr, rifampin-resistance was tested.

S. eurythermus KCTC 9731 = conditions: TCG (TCC) genotype
Procedure: (§1) The primer sets of SEQ ID NOs: 1 and 2 were used to amplify rpoB genes of 60 strains, and nucleotides of the […] products were analyzed with an automatic sequencer. SRPOF1 as a forward primer and SRPOR1 as a backward primer were used.

S. lividans KCTC 1154 = conditions: AAC genotype
Procedure: as §1

S. cellulose KCTC 9703 = conditions: AAC genotype
Procedure: as §1

S. murinus KCTC 9492 = conditions: AAC genotype
Procedure: as §1

S. kurssanovi KCCM 40527 = conditions: TCG (TCC) genotype
Procedure: as §1

[1] = test system: S. citreofluorescens KCTC 9710; conditions: TCG (TCC) genotype
Procedure: as §1

[2] = test system: S. albovinaceous KCCM 40177; conditions: TCG (TCC) genotype
Procedure: as §1

[3] = test system: S. flavovirens KCCM 40165; conditions: TCG (TCC) genotype
Procedure: as §1

[4] = test system: S. aburaviensis KCTC 9663; conditions: TCG (TCC) genotype
Procedure: as §1

S. albospinus KCTC 9762 = conditions: TCG (TCC) genotype
Procedure: as §1

[5] = test system: S. coerulescens KCCM 40508; conditions: TCG (TCC) genotype
Procedure: as §1

S. chivaensis KCTC 9786 = conditions: AAC genotype
Procedure: as §1

[6] = test system: S. xanthocidicus KCCM 40286; conditions: AAC genotype
Procedure: as §1

S. fumanus KCCM 40522 = conditions: TCG (TCC) genotype
Procedure: as §1

S. piosus KCCM 40480 = conditions: AAC genotype
Procedure: as §1

S. fimbriatus KCCM 11888 = conditions: TCG (TCC) genotype
Procedure: as §1

S. gougeroti KCCM 40681 = conditions: TCG (TCC) genotype
Procedure: as §1

[7] = test system: S. indigoferus KCCM 40495; conditions: TCG (TCC) genotype
Procedure: as §1

[8] = test system: S. disatochromogenes KCCM 40449; conditions: TCG (TCC) genotype
Procedure: as §1

S. cremeus KCCM 40509 = conditions: TCG (TCC) genotype
Procedure: as §1

[9] = test system: S. aureufaciens KCCM 40127; conditions: TCG (TCC) genotype
Procedure: as §1

[10] = test system: S. griseolosporeus KCTC 9791; conditions: TCG (TCC) genotype
Procedure: as §1

[11] = test system: S. hachijoense KCCM 32306; conditions: TCG (TCC) genotype
Procedure: as §1

S. tendae KCCM 40105 = conditions: AAC genotype
Procedure: as §1

S. anulatus KCCM 40190 = conditions: AAC genotype
Procedure: as §1

S. coelescens KCCM 40742 = conditions: AAC genotype
Procedure: as §1

[12] = test system: S. amakusaensis KCTC 9753; conditions: TCG (TCC) genotype
Procedure: as §1

[13] = test system: S. griseoflavus KCCM 12624; conditions: AAC genotype
Procedure: as §1

S. baldacii KCCM 41326 = conditions: TCG (TCC) genotype
Procedure: as §1

S. erythraeus KCCM 40477 = conditions: TCG (TCC) genotype
Procedure: as §1

S. umbrinus KCCM 40316 = conditions: AAC genotype
Procedure: as §1

S. erumpens KCTC 9729 = conditions: TCG (TCC) genotype
Procedure: as §1

[14] = test system: S. yokosukanens KCCM 40633; conditions: AAC genotype
Procedure: as §1

[15] = test system: S. cyaneofuscatus KCCM 40517; conditions: TCG (TCC) genotype
Procedure: as §1

[16] = test system: S. griseostramineus KCCM 40526; conditions: TCG (TCC) genotype
Procedure: as §1

[17] = test system: S. ambofaciens KCCM 40182; conditions: AAC genotype
Procedure: as §1

[18] = test system: S. chromogenes KCCM 40727; conditions: TCG (TCC) genotype
Procedure: as §1

S. carpinensis KCTC 9128 = conditions: TCG (TCC) genotype
Procedure: as §1

S. halstedii KCCM 40613 = conditions: TCG (TCC) genotype
Procedure: as §1

[19] = test system: S. antibioticus KCTC 1137; conditions: TCG (TCC) genotype
Procedure: as §1

S. fulvissimus KCTC 9773 = conditions: TCG (TCC) genotype
Procedure: as §1

S. rubiginosus KCTC 9042 = conditions: AAC genotype
Procedure: as §1

CO[C@H]1/C=C/O[C@@]2(C)Oc3c(C)c(O)c4c(O)c(c(/C=N/N5CCN(C)CC5)c(O)c4c3C2=O)NC(=O)/C(C)=C\C=C\[C@H](C)[C@H](O)[C@@H](C)[C@@H](O)[C@@H](C)[C@H](OC(C)=O)[C@@H]1C [rifampin]
−: genotype (rifampin-resistance or susceptibility) (S. actuosus KCTC 9112) | genotype (rifampin-resistant or -sensitive strain) (S. eurythermus KCTC 9731) | genotype (rifampin-resistant or -sensitive strain) (S. kurssanovi KCCM 40527) | genotype (rifampin-resistant or -sensitive strain) [1] | genotype (rifampin-resistant or -sensitive strain) [2] | genotype (rifampin-resistant or -sensitive strain) [3] | genotype (rifampin-resistant or -sensitive strain) [4] | genotype (rifampin-resistant or -sensitive strain) (S. albospinus KCTC 9762) | genotype (rifampin-resistant or -sensitive strain) [5] | genotype (rifampin-resistant or -sensitive strain) (S. fumanus KCCM 40522) | genotype (rifampin-resistant or -sensitive strain) (S. fimbriatus KCCM 11888) | genotype (rifampin-resistant or -sensitive strain) (S. gougeroti KCCM 40681) | genotype (rifampin-resistant or -sensitive strain) [7] | genotype (rifampin-resistant or -sensitive strain) [8] | genotype (rifampin-resistant or -sensitive strain) (S. cremeus KCCM 40509) | genotype (rifampin-resistant or -sensitive strain) [9] | genotype (rifampin-resistant or -sensitive strain) [10] | genotype (rifampin-resistant or -sensitive strain) [11] | genotype (rifampin-resistant or -sensitive strain) [12] | genotype (rifampin-resistant or -sensitive strain) (S. baldacii KCCM 41326) | genotype (rifampin-resistant or -sensitive strain) (S. erythraeus KCCM 40477) | genotype (rifampin-resistant or -sensitive strain) (S. erumpens KCTC 9729) | genotype (rifampin-resistant or -sensitive strain) [15] | genotype (rifampin-resistant or -sensitive strain) [16] | genotype (rifampin-resistant or -sensitive strain) [18] | genotype (rifampin-resistant or -sensitive strain) (S. carpinensis KCTC 9128) | genotype (rifampin-resistant or -sensitive strain) (S. halstedii KCCM 40613) | genotype (rifampin-resistant or -sensitive strain) [19] | genotype (rifampin-resistant or -sensitive strain) (S. fulvissimus KCTC 9773)
+: genotype (rifampin-resistant or -sensitive strain) (S. lividans KCTC 1154) | genotype (rifampin-resistant or -sensitive strain) (S. cellulose KCTC 9703) | genotype (rifampin-resistant or -sensitive strain) (S. murinus KCTC 9492) | genotype (rifampin-resistant or -sensitive strain) (S. chivaensis KCTC 9786) | genotype (rifampin-resistant or -sensitive strain) [6] | genotype (rifampin-resistant or -sensitive strain) (S. piosus KCCM 40480) | genotype (rifampin-resistant or -sensitive strain) (S. tendae KCCM 40105) | genotype (rifampin-resistant or -sensitive strain) (S. anulatus KCCM 40190) | genotype (rifampin-resistant or -sensitive strain) (S. coelescens KCCM 40742) | genotype (rifampin-resistant or -sensitive strain) [13] | genotype (rifampin-resistant or -sensitive strain) (S. umbrinus KCCM 40316) | genotype (rifampin-resistant or -sensitive strain) [14] | genotype (rifampin-resistant or -sensitive strain) [17] | genotype (rifampin-resistant or -sensitive strain) (S. rubiginosus KCTC 9042)
